In ChEMBL document CHEMBL1201862, “PubChem BioAssay data set” (2004):
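96-well plates; 48 h exposure; 5 concentrations. Endpoints by linear interpolation between flanking doses. Not reached: highest tested concentration assigned. Abbreviation: GI50, concentration required for 50% inhibition of growth.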 The source made the active and inactive calls. Cut-off read from the data, not from the text of the source: active = GI50 up to about 1.1 µM and inactive = higher.

Columns and labels:
Test in all cases: NCI-60 cell line screen, 48 h
HT-29 = system: HT-29
SNB-78 = system: SNB-78
HL-60 = system: HL-60
KM12 = system: KM12
HOP-92 = system: HOP-92
RPMI-8226 = system: RPMI-8226
OVCAR-4 = system: OVCAR-4
A549 = system: A549
U-251 = system: U-251
M14 = system: M14
EKVX = system: EKVX
KM-20L2 = system: KM-20L2
HCT-116 = system: HCT-116
SF-295 = system: SF-295
786-0 = system: 786-0
CAKI-1 = system: CAKI-1
OVCAR-3 = system: OVCAR-3
UO-31 = system: UO-31
HOP-18 = system: HOP-18
SK-MEL-28 = system: SK-MEL-28
Malme-3M = system: Malme-3M
COLO 205 = system: COLO 205
HCT-15 = system: HCT-15
RXF 393 = system: RXF 393
K562 = system: K562
NCI-H23 = system: NCI-H23
IGROV-1 = system: IGROV-1
DLD-1 = system: DLD-1
SK-OV-3 = system: SK-OV-3
SK-MEL-2 = system: SK-MEL-2
SF-539 = system: SF-539
SK-MEL-5 = system: SK-MEL-5
SF-268 = system: SF-268
HCC 2998 = system: HCC 2998
MOLT-4 = system: MOLT-4
TK-10 = system: TK-10
M19-MEL = system: M19-MEL
OVCAR-8 = system: OVCAR-8
UACC-62 = system: UACC-62
DMS-114 = system: DMS-114
SR = system: SR
HOP-62 = system: HOP-62
OVCAR-5 = system: OVCAR-5
CCRF-CEM = system: CCRF-CEM
NCI-H226 = system: NCI-H226
A498 = system: A498
SNB-75 = system: SNB-75
NCI-H522 = system: NCI-H522
DMS-273 = system: DMS-273
SN12C = system: SN12C
ACHN = system: ACHN
NCI-H460 = system: NCI-H460
LOX IMVI = system: LOX IMVI
UACC-257 = system: UACC-257
LXFL 529 = system: LXFL 529

Structure (SMILES): COC1CC(Br)(C#N)C1 (centres undefined)
- GI50 (HT-29): > 100 µM (inactive)
- GI50 (SNB-78): > 100 µM (inactive)
- GI50 (HL-60): > 100 µM (inactive)
- GI50 (KM12): > 100 µM (inactive)
- GI50 (HOP-92): > 100 µM (inactive)
- GI50 (RPMI-8226): > 100 µM (inactive)
- GI50 (OVCAR-4): > 100 µM (inactive)
- GI50 (A549): > 100 µM (inactive)
- GI50 (U-251): > 100 µM (inactive)
- GI50 (M14): > 100 µM (inactive)
- GI50 (EKVX): > 100 µM (inactive)
- GI50 (KM-20L2): > 100 µM (inactive)
- GI50 (HCT-116): > 100 µM (inactive)
- GI50 (SF-295): > 100 µM (inactive)
- GI50 (786-0): > 100 µM (inactive)
- GI50 (CAKI-1): > 100 µM (inactive)
- GI50 (OVCAR-3): > 100 µM (inactive)
- GI50 (UO-31): > 100 µM (inactive)
- GI50 (HOP-18): > 100 µM (inactive)
- GI50 (SK-MEL-28): > 100 µM (inactive)
- GI50 (Malme-3M): > 100 µM (inactive)
- GI50 (COLO 205): > 100 µM (inactive)
- GI50 (HCT-15): > 100 µM
- GI50 (RXF 393): > 100 µM (inactive)
- GI50 (K562): > 100 µM (inactive)
- GI50 (NCI-H23): > 100 µM (inactive)
- GI50 (IGROV-1): > 100 µM (inactive)
- GI50 (DLD-1): > 100 µM (inactive)
- GI50 (SK-OV-3): > 100 µM (inactive)
- GI50 (SK-MEL-2): > 100 µM (inactive)
- GI50 (SF-539): > 100 µM (inactive)
- GI50 (SK-MEL-5): > 100 µM (inactive)
- GI50 (SF-268): > 100 µM (inactive)
- GI50 (HCC 2998): > 100 µM (inactive)
- GI50 (MOLT-4): 52 µM (inactive)
- GI50 (TK-10): > 100 µM (inactive)
- GI50 (M19-MEL): > 100 µM (inactive)
- GI50 (OVCAR-8): > 100 µM (inactive)
- GI50 (UACC-62): > 100 µM (inactive)
- GI50 (DMS-114): > 100 µM (inactive)
- GI50 (SR): > 100 µM (inactive)
- GI50 (HOP-62): > 100 µM (inactive)
- GI50 (OVCAR-5): > 100 µM (inactive)

Structure (SMILES): COc1ccc(NC(=O)CSc2nnc(-c3ccc(NC(C)=O)cc3)o2)cc1
- GI50 (HT-29): 11.1 µM (inactive)
- GI50 (SNB-78): 13.8 µM (inactive)
- GI50 (HL-60): 21.9 µM (inactive)
- GI50 (KM12): 15.1 µM (inactive)
- GI50 (OVCAR-4): 15.7 µM (inactive)
- GI50 (A549): 20.9 µM (inactive)
- GI50 (U-251): 15.7 µM (inactive)
- GI50 (M14): 17 µM (inactive)
- GI50 (EKVX): 23 µM (inactive)
- GI50 (CCRF-CEM): 9.55 µM (inactive)
- GI50 (KM-20L2): 19.5 µM (inactive)
- GI50 (HCT-116): 14.6 µM (inactive)
- GI50 (NCI-H226): 24.3 µM (inactive)
- GI50 (SF-295): 15.3 µM (inactive)
- GI50 (786-0): 17.2 µM (inactive)
- GI50 (OVCAR-3): 17.8 µM (inactive)
- GI50 (A498): 15.5 µM (inactive)
- GI50 (SNB-75): 63.1 µM (inactive)
- GI50 (UO-31): 17.7 µM (inactive)
- GI50 (NCI-H522): 14.5 µM (inactive)
- GI50 (HOP-18): 19.9 µM (inactive)
- GI50 (SK-MEL-28): 18.7 µM (inactive)
- GI50 (DMS-273): 19.3 µM (inactive)
- GI50 (Malme-3M): 20.6 µM (inactive)
- GI50 (COLO 205): 19.4 µM (inactive)
- GI50 (HCT-15): 11.2 µM
- GI50 (SN12C): 20 µM (inactive)
- GI50 (ACHN): 16.7 µM (inactive)
- GI50 (RXF 393): 14.5 µM (inactive)
- GI50 (K562): 21.4 µM (inactive)
- GI50 (NCI-H23): 10.7 µM (inactive)
- GI50 (IGROV-1): 15.5 µM (inactive)
- GI50 (DLD-1): 19.3 µM (inactive)
- GI50 (NCI-H460): 15.5 µM (inactive)
- GI50 (SK-OV-3): 44.1 µM (inactive)
- GI50 (LOX IMVI): 10.9 µM (inactive)
- GI50 (SK-MEL-2): 19.1 µM (inactive)
- GI50 (SF-539): > 10 µM (inactive)
- GI50 (SK-MEL-5): 13.2 µM (inactive)
- GI50 (SF-268): 15.8 µM (inactive)
- GI50 (HCC 2998): 19.7 µM (inactive)
- GI50 (MOLT-4): 17.4 µM (inactive)
- GI50 (TK-10): 21.7 µM (inactive)
- GI50 (M19-MEL): 21 µM (inactive)
- GI50 (UACC-257): 21.5 µM (inactive)
- GI50 (OVCAR-8): 20.7 µM (inactive)
- GI50 (UACC-62): 16.5 µM (inactive)
- GI50 (DMS-114): 5.6 µM (inactive)
- GI50 (LXFL 529): 13.6 µM (inactive)
- GI50 (HOP-62): 34.1 µM (inactive)
- GI50 (OVCAR-5): 14.4 µM (inactive)
